Measured values from patent publication US8349827B2, “Substituted dipyrido-pyrimido-diazepine and benzo-pyrido-pyrimido compounds” (ArQule, Inc., priority 2009, dated 2013).
Where a name gives a salt, the structure may show the parent alone.

Key:
MDA-MB-231 = test: MTS assay, MDA-MB-231 cells; format: cell-based; conditions: Homo sapiens, 72 hours
How it was run: (§1)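 First, seed 3000 cells per well in low-serum (1% FBS) DMEM and culture 18 h. Next, add compounds prepared at 300× in DMSO and diluted 1:40 in DMEM; incubate 72 h. Finally, add MTS/PMS for 4 h and measure absorbance at 492 nm.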

PACA-2 = test: MTS assay, PACA-2 cells; format: cell-based; conditions: 72 hours
How it was run: as §1

ABL = ABL (Homo sapiens, UniProt P00519); test: ABL Kinase Activity Assay (Elisa), ABL; format: biochemical; conditions: ATP 100 μM, read-out: Abl Enzymetic assay (Elisa) % inhibition
How it was run: (§2)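 Recombinant ABL or ABL T315I (0.089 nM final) preincubated 20 min with compound, then reacted 1 h at room temperature with 100 μM ATP and 128 nM biotinylated AblTide in Tris pH 7.0/MgCl2 buffer. Phosphopeptide captured on streptavidin and detected by anti-phosphotyrosine ELISA with alkaline phosphatase secondary and Attophos fluorescence.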

ABL T315I = ABL T315I (Homo sapiens, UniProt P00519, T315I); test: ABL Kinase Activity Assay (Elisa), ABL T315I; format: biochemical; conditions: ATP 100 μM, read-out: Abl(T315I) Enzymetic assay (Elisa) % inhibition
How it was run: as §2

KATO III = test: MTS assay, KATO III cells; format: cell-based; conditions: Homo sapiens, 72 hours
How it was run: as §1

NCI-H1299 = test: MTS assay, NCI-H1299 cells; format: cell-based; conditions: Homo sapiens, 72 hours
How it was run: as §1

DLD-1 = test: MTS assay, DLD-1 cells; format: cell-based; conditions: Homo sapiens, 72 hours
How it was run: as §1

PC-3 = test: MTS assay, PC-3 cells; format: cell-based; conditions: Homo sapiens, 72 hours
How it was run: as §1

Compound	melting point [°C]	inhibition at 10 µM (MDA-MB-231) [%]	inhibition at 10 µM (PACA-2) [%]	inhibition at 10 µM (ABL) [%]	inhibition at 10 µM (ABL T315I) [%]	inhibition at 10 µM (KATO III) [%]	inhibition at 10 µM (NCI-H1299) [%]	inhibition at 10 µM (DLD-1) [%]	inhibition at 10 µM (PC-3) [%]
CN(C)CCCCCNc1ncc2c(n1)-c1cccnc1Nc1cnccc1-2 (as salt: TFA) [Example 48, N′-9H-dipyrido[2,3-b:4′,3′-f]pyrimido[4,5-d]azepin-2-yl-N,N-dimethylpentane-1,5-diamine]	133 to 136	–	–	–	–	–	–	–	–
c1ccc(CNc2ncc3c(n2)-c2cccnc2Nc2cnccc2-3)nc1 (as salt: TFA) [Example 49, N-(pyridin-2-ylmethyl)-9H-dipyrido[2,3-b:4′,3′-f]pyrimido[4,5-d]azepin-2-amine]	253 to 255	–	–	–	–	–	–	–	–
CN(C)CCCNc1ncc2c(n1)-c1cccnc1Nc1cnccc1-2 (as salt: TFA) [Example 50, N′-9H-dipyrido[2,3-b:4′,3′-f]pyrimido[4,5-d]azepin-2-yl-N,N-dimethylpropane-1,3-diamine]	> 253	–	–	–	–	–	–	–	–
CN(C)CCCCNc1ncc2c(n1)-c1cccnc1Nc1cnccc1-2 (as salt: TFA) [Example 51, N′-9H-dipyrido[2,3-b:4′,3′-f]pyrimido[4,5-d]azepin-2-yl-N,N-dimethylbutane-1,4-diamine]	154 to 156	–	–	–	–	–	–	–	–
c1cnc2c(c1)-c1nc(NC3CCNCC3)ncc1-c1ccncc1N2 (as salt: TFA) [Example 59, N-piperidin-4-yl-9H-dipyrido[2,3-b:4′,3′-f]pyrimido[4,5-d]azepin-2-amine]	189 to 191	–	–	–	–	–	–	–	–
Fc1cccc(CNc2ncc3c(n2)-c2cccnc2Nc2cnccc2-3)c1 [Example 39, N-(3-fluorobenzyl)-9H-dipyrido[2,3-b:4′,3′-f]pyrimido[4,5-d]azepin-2-amine]	–	80 to 100	80 to 100	80 to 100	80 to 100	80 to 100	80 to 100	80 to 100	80 to 100
Cc1cccc(CNc2ncc3c(n2)-c2cccnc2Nc2cnccc2-3)c1 [Example 40, N-(3-methylbenzyl)-9H-dipyrido[2,3-b:4′,3′-f]pyrimido[4,5-d]azepin-2-amine]	–	50 to 79	80 to 100	80 to 100	80 to 100	50 to 79	50 to 79	50 to 79	80 to 100
COc1ccc(CCNc2ncc3c(n2)-c2cccnc2Nc2cnccc2-3)cc1 [Example 42, N-[2-(4-methoxyphenyl)ethyl]-9H-dipyrido[2,3-b:4′,3′-f]pyrimido[4,5-d]azepin-2-amine]	–	< 50	< 50	80 to 100	80 to 100	80 to 100	< 50	50 to 79	< 50
CN(C)CCCCNc1ncc2c(n1)-c1cccnc1Nc1cnccc1-2 [Example 51, N′-9H-dipyrido[2,3-b:4′,3′-f]pyrimido[4,5-d]azepin-2-yl-N,N-dimethylbutane-1,4-diamine]	–	80 to 100	< 50	50 to 79	< 50	80 to 100	< 50	< 50	80 to 100
c1cnc2c(c1)-c1nc(NCC3CCNCC3)ncc1-c1ccncc1N2 [Example 60, N-(piperidin-4-ylmethyl)-9H-dipyrido[2,3-b:4′,3′-f]pyrimido[4,5-d]azepin-2-amine]	–	80 to 100	80 to 100	50 to 79	< 50	80 to 100	50 to 79	50 to 79	80 to 100
OCCc1ccc(Nc2ncc3c(n2)-c2cccnc2Nc2ccccc2-3)cc1 [Example 63, 2-[4-(9H-pyrido[2,3-b]pyrimido[4,5-d][1]benzazepin-2-ylamino)phenyl]ethanol]	–	< 50	80 to 100	< 50	< 50	50 to 79	< 50	50 to 79	50 to 79
